Experimental data reported in patent US12577245B2, “Sulfonyl benzamide derivatives as Bcl-2 inhibitors” (ASCENTAGE PHARMA (SUZHOU) CO., LTD., priority 2021, dated 2026).

Key:
[1] = system: MV-4-11 cells; test: CCK-8 cell viability assay in MV-4-11 cells; type: cell-based; conditions: 10% FBS, 3 days
Procedure, shortened: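 IC50 values come from vehicle-normalized CCK-8 absorbance at 450 nm, read 1–4 h after reagent addition. Before that, MV-4-11 cells seeded at 20000 per well were cultured 3 days at 37 °C with a compound dilution series.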

[2] = system: RS4; 11Bcl-2-V156D cells; test: CellTiter-Glo (CTG) cell viability assay in RS4;11-BCL2-V156D cells; type: cell-based; conditions: 10% FBS, 3 days
Experimental: (§1) RS4; 11Bcl-2-G101V, RS4; 11Bcl-2-D103E, RS4; 11Bcl-2-V156D and RS4; 11Bcl-2-G101V-D103E cells were obtained from Cobioer Biosciences. Cells were maintained in the RPMI-1640 medium with 10% FBS, 1% P/S and puromycin (1 μg/mL) at 37° C. and an atmosphere of 5% CO2.
(§2) • The effect of representative Compounds of the Disclosure on cell viability was determined using CellTiter-Glo® (CTG) luminescent cell viability assay (Promega, USA) according to the manufacturer's instructions. 95 μL of cell suspension (10000 cells/well) in culture medium were seeded into 96-well plates and cultured 4 hours. Each tested compound was serially diluted in blank culture medium, and 5 μL of the compound dilution was added to the corresponding well of the cell plate. After the addition of the tested compound, the cells were incubated at 37° C. in an atmosphere of 5% CO2 for 3 days. At the end of 3 days, 30 μL of CTG solution was added to each well of the plate and mix contents for 2 minutes on an orbital shaker. Allow the plate to incubate at room temperature for 15 mins to stabilize signal and record RLU on the Biotek plate reader. The readings were normalized to the vehicle cells, and the IC50 was calculated using GraphPad Prism 8 software.

[3] = system: RS4; 11Bcl-2-G101V cells; test: CellTiter-Glo (CTG) cell viability assay in RS4;11-Bcl-2-G101V cells; type: cell-based; conditions: 10% FBS, 3 days
Procedure, shortened: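 Luminescent ATP read-out (CellTiter-Glo) after 3-day compound treatment at 37 °C gave viability relative to vehicle, from which IC50 was fitted. Mutant Bcl-2 RS4;11 cells were seeded at 10000 per well and rested 4 h before dosing.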

[4] = system: RS4; 11Bcl-2-D103E cells; test: CellTiter-Glo (CTG) cell viability assay in RS4;11-BCL2-D103E cells; type: cell-based; conditions: 10% FBS, 3 days
Experimental: as §1, §2

[5] = target: Bcl-2 WT (Homo sapiens, UniProt P10415); test: Bcl-2 WT inhibition, fluorescence polarization (Flu-BIM tracer) binding assay; conditions: FP; 20 nM Bcl2, 5 nM Flu-BIM, 1 h incubation; read-out: Bcl-2 w.t. (FP)
Chain of Bcl-2 WT (P10415 whole entry): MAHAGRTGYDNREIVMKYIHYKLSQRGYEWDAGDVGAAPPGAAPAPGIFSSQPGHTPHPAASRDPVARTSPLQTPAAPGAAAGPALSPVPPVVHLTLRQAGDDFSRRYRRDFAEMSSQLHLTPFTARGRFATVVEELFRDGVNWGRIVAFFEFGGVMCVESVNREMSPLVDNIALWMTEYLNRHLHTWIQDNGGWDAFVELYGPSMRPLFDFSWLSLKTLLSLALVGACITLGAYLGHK

Row | IC50 ([2]; 72 h) [nM] | IC50 ([4]; 72 h) [nM] | IC50 [1] [nM] | IC50 [2] [nM] | IC50 [3] [nM] | IC50 [4] [nM] | Structure (SMILES) | IC50 ([1]; Homo sapiens, MV4-11, 72 h) [nM] | IC50 ([3]; 72 h) [nM] | IC50 [5] [nM]
1 | 671 | 1510 | – | – | – | – | CC1(C)CCC(CN2CCN(c3ccc(C(=O)NS(=O)(=O)c4ccc(NCC5CCOCC5)c([N+](=O)[O-])c4)c(Oc4cnc5[nH]ccc5c4)c3)CC2)=C(c2ccc(Cl)cc2)C1 [ABT-199, Venetoclax, reference compound] | 38 | 2690 | –
2 | – | – | 34 | 324 | 2430 | 516 | O=C(NS(=O)(=O)c1ccc(NC[C@H]2COCCO2)c([N+](=O)[O-])c1)c1ccc(N2CCN(CC3=C(c4ccc(Cl)cc4)CC4(CCC4)CC3)CC2)cc1Oc1cnc2[nH]ccc2c1 [APG-2575] | – | – | –
3 | – | – | – | – | – | – | CC1(C)CCC(CN2CCN(c3ccc(C(=O)NS(=O)(=O)c4ccc(NC[C@H]5CC[C@](C)(O)CC5)c([N+](=O)[O-])c4)c(Oc4cnc5[nH]ccc5c4)c3)CC2)=C(c2cc(-c3ccc(C(C)(C)O)c(F)c3)cs2)C1 [Example 71, 2-((1H-pyrrolo[2,3-b]pyridin-5-yl)oxy)-4-(4-((2-(4-(3-fluoro-4-(2-hydroxypropan-2-yl)phenyl)thiophen-2-yl)-4,4-dimethylcyclohex-1-en-1-yl)methyl)piperazin-1-yl)-N-((4-((((1r,4r)-4-hydroxy-4-methylcyclohexyl)methyl)amino)-3-nitrophenyl)sulfonyl)benzamide] | 12 | 330 | 15.4
4 | – | – | – | – | – | – | CC(CO)c1ccc(-c2csc(C3=C(CN4CCN(c5ccc(C(=O)NS(=O)(=O)c6ccc(NC[C@H]7CC[C@](C)(O)CC7)c([N+](=O)[O-])c6)c(Oc6cnc7[nH]ccc7c6)c5)CC4)CCC(C)(C)C3)c2)c(F)c1 (stereo partly drawn) [Example 72, 2-((1H-pyrrolo[2,3-b]pyridin-5-yl)oxy)-4-(4-((2-(4-(2-fluoro-4-(1-hydroxypropan-2-yl)phenyl)thiophen-2-yl)-4,4-dimethylcyclohex-1-en-1-yl)methyl)piperazin-1-yl)-N-((4-((((1r,4r)-4-hydroxy-4-methylcyclohexyl)methyl)amino)-3-nitrophenyl)sulfonyl)benzamide] | 12 | 440 | 20.5
5 | – | – | – | – | – | – | CC(C)(O)Cc1ccc(-c2csc(C3=C(CN4CCN(c5ccc(C(=O)NS(=O)(=O)c6ccc(NC[C@H]7CC[C@](C)(O)CC7)c([N+](=O)[O-])c6)c(Oc6cnc7[nH]ccc7c6)c5)CC4)CCC(C)(C)C3)c2)c(F)c1 [Example 73, 2-((1H-pyrrolo[2,3-b]pyridin-5-yl)oxy)-4-(4-((2-(4-(2-fluoro-4-(2-hydroxy-2-methylpropyl)phenyl)thiophen-2-yl)-4,4-dimethylcyclohex-1-en-1-yl)methyl)piperazin-1-yl)-N-((4-((((1r,4r)-4-hydroxy-4-methylcyclohexyl)methyl)amino)-3-nitrophenyl)sulfonyl)benzamide] | 8 | 490 | 23.7
6 | – | – | – | – | – | – | CC1(C)CCC(CN2CCN(c3ccc(C(=O)NS(=O)(=O)c4ccc(NC[C@H]5CC[C@](C)(O)CC5)c([N+](=O)[O-])c4)c(Oc4cnc5[nH]ccc5c4)c3)CC2)=C(c2cc(-c3c(F)cc(C(C)(C)CO)cc3F)cs2)C1 [Example 74, 2-((1H-pyrrolo[2,3-b]pyridin-5-yl)oxy)-4-(4-((2-(4-(2,6-difluoro-4-(1-hydroxy-2-methylpropan-2-yl)phenyl)thiophen-2-yl)-4,4-dimethylcyclohex-1-en-1-yl)methyl)piperazin-1-yl)-N-((4-((((1r,4r)-4-hydroxy-4-methylcyclohexyl)methyl)amino)-3-nitrophenyl)sulfonyl)benzamide] | 52 | 230 | 38.5
7 | – | – | – | – | – | – | CC1(C)CCC(CN2CCN(c3ccc(C(=O)NS(=O)(=O)c4ccc(NC[C@H]5CC[C@](C)(O)CC5)c([N+](=O)[O-])c4)c(Oc4cnc5[nH]ccc5c4)c3)CC2)=C(c2cc(-c3cc(C(C)(C)O)ccc3F)cs2)C1 [Example 75, 2-((1H-pyrrolo[2,3-b]pyridin-5-yl)oxy)-4-(4-((2-(4-(2-fluoro-5-(2-hydroxypropan-2-yl)phenyl)thiophen-2-yl)-4,4-dimethylcyclohex-1-en-1-yl)methyl)piperazin-1-yl)-N-((4-((((1r,4r)-4-hydroxy-4-methylcyclohexyl)methyl)amino)-3-nitrophenyl)sulfonyl)benzamide] | 118 | 1580 | 19.2
8 | – | – | – | – | – | – | CC1(C)CCC(CN2CCN(c3ccc(C(=O)NS(=O)(=O)c4ccc(NC[C@H]5CC[C@](C)(O)CC5)c([N+](=O)[O-])c4)c(Oc4cnc5[nH]ccc5c4)c3)CC2)=C(c2cc(-c3ccc(C(C)(O)C(F)(F)F)cc3F)cs2)C1 (stereo partly drawn) [Example 78, 2-((1H-pyrrolo[2,3-b]pyridin-5-yl)oxy)-4-(4-((2-(4-(2-fluoro-4-(1,1,1-trifluoro-2-hydroxypropan-2-yl)phenyl)thiophen-2-yl)-4,4-dimethylcyclohex-1-en-1-yl)methyl)piperazin-1-yl)-N-((4-((((1r,4r)-4-hydroxy-4-methylcyclohexyl)methyl)amino)-3-nitrophenyl)sulfonyl)benzamide] | 59 | 580 | 16.8
9 | – | – | – | – | – | – | CC1(C)CCC(CN2CCN(c3ccc(C(=O)NS(=O)(=O)c4ccc(NC[C@H]5CC[C@](C)(O)CC5)c([N+](=O)[O-])c4)c(Oc4cnc5[nH]ccc5c4)c3)CC2)=C(c2cc(-c3ccc4c(c3)CCC4(C)O)cs2)C1 (stereo partly drawn) [Example 79, 2-((1H-pyrrolo[2,3-b]pyridin-5-yl)oxy)-4-(4-((2-(4-(1-hydroxy-1-methyl-2,3-dihydro-1H-inden-5-yl)thiophen-2-yl)-4,4-dimethylcyclohex-1-en-1-yl)methyl)piperazin-1-yl)-N-((4-((((1r,4r)-4-hydroxy-4-methylcyclohexyl)methyl)amino)-3-nitrophenyl)sulfonyl)benzamide] | 11 | 170 | 15.8
10 | – | – | – | – | – | – | CC(=O)NC(C)(C)c1cc(F)c(-c2csc(C3=C(CN4CCN(c5ccc(C(=O)NS(=O)(=O)c6ccc(NC[C@H]7CC[C@](C)(O)CC7)c([N+](=O)[O-])c6)c(Oc6cnc7[nH]ccc7c6)c5)CC4)CCC(C)(C)C3)c2)c(F)c1 [Example 80, 2-((1H-pyrrolo[2,3-b]pyridin-5-yl)oxy)-4-(4-((2-(4-(4-(2-acetamidopropan-2-yl)-2,6-difluorophenyl)thiophen-2-yl)-4,4-dimethylcyclohex-1-en-1-yl)methyl)piperazin-1-yl)-N-((4-((((1r,4r)-4-hydroxy-4-methylcyclohexyl)methyl)amino)-3-nitrophenyl)sulfonyl)benzamide] | 111 | 420 | 15.6
11 | – | – | – | – | – | – | Cc1sc(C2=C(CN3CCN(c4ccc(C(=O)NS(=O)(=O)c5ccc(NC[C@H]6CC[C@](C)(O)CC6)c([N+](=O)[O-])c5)c(Oc5cnc6[nH]ccc6c5)c4)CC3)CCC(C)(C)C2)cc1-c1c(F)cc(C(C)(C)O)cc1F [Example 81, 2-((1H-pyrrolo[2,3-b]pyridin-5-yl)oxy)-4-(4-((2-(4-(2,6-difluoro-4-(2-hydroxypropan-2-yl)phenyl)-5-methylthiophen-2-yl)-4,4-dimethylcyclohex-1-en-1-yl)methyl)piperazin-1-yl)-N-((4-((((1r,4r)-4-hydroxy-4-methylcyclohexyl)methyl)amino)-3-nitrophenyl)sulfonyl)benzamide] | 270 | 1710 | 34.6
12 | – | – | – | – | – | – | CC1(C)CCC(CN2CCN(c3ccc(C(=O)NS(=O)(=O)c4ccc(NC[C@H]5CC[C@](C)(O)CC5)c([N+](=O)[O-])c4)c(Oc4cnc5[nH]ccc5c4)c3)CC2)=C(c2cc(-c3c(F)cc(C(C)(C)C(=O)O)cc3F)cs2)C1 [Example 82, 2-(4-(5-(2-((4-(3-((1H-pyrrolo[2,3-b]pyridin-5-yl)oxy)-4-(((4-((((1r,4r)-4-hydroxy-4-methylcyclohexyl)methyl)amino)-3-nitrophenyl)sulfonyl)carbamoyl)phenyl)piperazin-1-yl)methyl)-5,5-dimethylcyclohex-1-en-1-yl)thiophen-3-yl)-3,5-difluorophenyl)-2-methylpropanoic acid] | 114 | 1270 | 18.1
13 | 8 | 48 | – | – | – | – | C[C@@H](O)c1cc(F)c(-c2csc(C3=C(CN4CCN(c5ccc(C(=O)NS(=O)(=O)c6ccc(NC[C@H]7CC[C@](C)(O)CC7)c([N+](=O)[O-])c6)c(Oc6cnc7[nH]ccc7c6)c5)CC4)CCC(C)(C)C3)c2)c(F)c1 [Example 83, 2-((1H-pyrrolo[2,3-b]pyridin-5-yl)oxy)-4-(4-((2-(4-(2,6-difluoro-4-((R)-1-hydroxyethyl)phenyl)thiophen-2-yl)-4,4-dimethylcyclohex-1-en-1-yl)methyl)piperazin-1-yl)-N-((4-((((1r,4r)-4-hydroxy-4-methylcyclohexyl)methyl)amino)-3-nitrophenyl)sulfonyl)benzamide] | 2 | 20 | –
